Measurements taken from US20230382925A1, “MODULATORS OF CYSTIC FIBROSIS TRANSMEMBRANE CONDUCTANCE REGULATOR” (VERTEX PHARMACEUTICALS INCORPORATED, priority 2020, published 2023).
Like-named read-outs stand apart in the source and are kept apart here.

Biological target: CFTR (Homo sapiens, UniProt P13569)
Experiment: Membrane Potential Dye, Enteroid Assay B
Assay type: cell-based
In short: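 Human intestinal enteroid cells exposed to compound 18-24 h at 37 °C, then loaded with methyl oxonol membrane-potential dye plus CaCC blockers. Chloride transport triggered in chloride-free buffer with 10 μM forskolin, 100 μM IBMX, 300 nM Compound III; fluorescence read 15 min, expressed as % of triple-corrector/potentiator combination control.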

[1] = Table 10, read-out: Ent. B EC50

Sequence of CFTR (P13569 with tags, fused parts or gaps DEL508-508): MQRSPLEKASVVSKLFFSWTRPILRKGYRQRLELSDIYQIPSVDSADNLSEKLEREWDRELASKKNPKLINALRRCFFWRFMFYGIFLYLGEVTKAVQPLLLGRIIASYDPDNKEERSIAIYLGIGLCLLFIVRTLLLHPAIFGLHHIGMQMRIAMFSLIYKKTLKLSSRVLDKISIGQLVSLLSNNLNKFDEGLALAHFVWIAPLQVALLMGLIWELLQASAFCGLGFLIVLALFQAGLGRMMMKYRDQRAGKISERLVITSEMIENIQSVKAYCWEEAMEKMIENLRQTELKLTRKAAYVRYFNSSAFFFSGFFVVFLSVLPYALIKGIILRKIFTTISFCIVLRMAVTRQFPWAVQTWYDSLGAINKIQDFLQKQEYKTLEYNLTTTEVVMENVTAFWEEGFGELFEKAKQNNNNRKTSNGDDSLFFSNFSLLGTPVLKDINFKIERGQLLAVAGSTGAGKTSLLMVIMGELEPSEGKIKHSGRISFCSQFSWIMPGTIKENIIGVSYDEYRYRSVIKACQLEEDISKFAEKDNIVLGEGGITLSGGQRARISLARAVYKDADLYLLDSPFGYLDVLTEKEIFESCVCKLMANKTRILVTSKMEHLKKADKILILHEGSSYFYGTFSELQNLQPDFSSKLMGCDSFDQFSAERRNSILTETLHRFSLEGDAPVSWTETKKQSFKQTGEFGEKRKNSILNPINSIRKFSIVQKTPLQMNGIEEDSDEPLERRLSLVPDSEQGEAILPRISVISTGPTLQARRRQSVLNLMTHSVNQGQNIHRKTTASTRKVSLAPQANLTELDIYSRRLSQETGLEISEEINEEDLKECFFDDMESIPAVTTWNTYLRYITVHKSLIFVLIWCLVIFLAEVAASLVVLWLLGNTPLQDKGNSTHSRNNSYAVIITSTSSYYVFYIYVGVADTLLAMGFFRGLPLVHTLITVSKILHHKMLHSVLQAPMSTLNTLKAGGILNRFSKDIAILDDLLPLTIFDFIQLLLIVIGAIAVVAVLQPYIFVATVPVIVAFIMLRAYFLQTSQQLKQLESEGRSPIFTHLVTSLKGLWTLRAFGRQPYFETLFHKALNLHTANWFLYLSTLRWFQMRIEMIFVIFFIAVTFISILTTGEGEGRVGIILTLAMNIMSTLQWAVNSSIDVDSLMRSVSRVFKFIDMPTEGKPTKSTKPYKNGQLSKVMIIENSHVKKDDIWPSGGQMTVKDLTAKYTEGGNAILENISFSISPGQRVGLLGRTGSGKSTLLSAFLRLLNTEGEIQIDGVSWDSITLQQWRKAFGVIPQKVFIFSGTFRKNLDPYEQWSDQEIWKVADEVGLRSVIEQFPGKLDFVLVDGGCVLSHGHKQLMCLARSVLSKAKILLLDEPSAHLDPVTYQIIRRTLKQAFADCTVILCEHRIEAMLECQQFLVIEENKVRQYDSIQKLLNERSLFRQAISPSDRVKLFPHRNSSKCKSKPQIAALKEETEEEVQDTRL

Compound | Ent. B Max Activity (%) (Table 9) | EC50 (Table 9, read-out: Ent. B EC50) [nM] | Ent. B Max Activity (%) (Table 10) | EC50 [1] [nM] | also measured
Cc1cccc(C)c1-c1cc2nc(n1)NS(=O)(=O)c1cccc(c1)C(=O)N(C1CC(N(C)C3CCC3)C1)[C@H](CC(C)C)CO2 (some centres unmarked) [Compound 376] | +++ (+++ is >60%) | < 1000 | – | – | –
Cc1cccc(C)c1-c1cc2nc(n1)NS(=O)(=O)c1cccc(c1)C(=O)N([C@H]1C[C@@H](N3C[C@@H](C)CC3(C)C)C1)[C@H](CC(C)C)CO2 [Compound 359] | – | – | ++ (++ is 30-60%) | < 1000 | –
COCCN[C@H]1C[C@@]2(C1)C[C@H](N1C(=O)c3cccc(c3)S(=O)(=O)Nc3nc(cc(-c4c(C)cccc4C)n3)OC[C@H]1CC1(C(F)(F)F)CC1)C2 (some centres unmarked) [Compound 269] | +++ (+++ is >60%) | < 1000 | – | – | –
CCC(=O)N[C@H]1C[C@@]2(C1)C[C@H](N1C(=O)c3cccc(c3)S(=O)(=O)Nc3nc(cc(-c4c(C)cccc4C)n3)OC[C@H]1CC1(C(F)(F)F)CC1)C2 (some centres unmarked) [Compound 248] | – | – | +++ (+++ is >60%) | < 1000 | –
Cc1cccc(C)c1-c1cc2nc(n1)NS(=O)(=O)c1cccc(c1)C(=O)N([C@H]1C[C@@H](N3C[C@@H](C)O[C@@H](C)C3)C1)[C@H](CC(C)C)CO2 [Compound 380] | +++ (+++ is >60%) | < 1000 | – | – | –
Cc1cccc(C)c1-c1cc2nc(n1)NS(=O)(=O)c1cc(n(C)n1)C(=O)N(C1CC3(C1)CC(C(C)(C)O)C3)[C@H](CC(C)(C)C)CO2 (some centres unmarked) [Compound 436] | – | – | +++ (+++ is >60%) | < 1000 | –
Cc1cccc(C)c1-c1cc2nc(n1)NS(=O)(=O)c1cccc(c1)C(=O)N(C1CC(NC(=O)OC(C)C)C1)[C@H](CC1(C(F)(F)F)CC1)CO2 (single isomer, unassigned) [Compound 60] | +++ (+++ is >60%) | < 1000 | – | – | –
Cc1cccc(C)c1-c1cc2nc(n1)NS(=O)(=O)c1cccc(n1)C(=O)N(C1CC3(CCNCC3)C1)[C@H](CC(C)C)CO2 [Compound 392] | – | – | – | – | Ent. B Max Activity (%): +++ (+++ is >60%); EC50 (read-out: Ent. B EC50): 1000 to 3000 nM
Cc1cccc(C)c1-c1cc2nc(n1)NS(=O)(=O)c1cccc(c1)C(=O)N(C1CC3(CC(N)C3)C1)[C@H](CC(C)C)CO2 (stereo in doubt) [Compound 292] | +++ (+++ is >60%) | < 1000 | – | – | –
Cc1cccc(C)c1-c1cc2nc(n1)NS(=O)(=O)c1cccc(c1)C(=O)N(C1CC(NC3CCC(C)(C)CC3)C1)[C@H](CC(C)C)CO2 (stereo partly drawn) [Compound 70, (11R)-12-[3-[(4,4-Dimethylcyclohexyl)amino]cyclobutyl]-6-(2,6-dimethylphenyl)-11-isobutyl-2,2-dioxo-9-oxa-2λ^6-thia-3,5,12,19-tetrazatricyclo[12.3.1.14,8]nonadeca-1(18),4(19),5,7,14,16-hexaen-13-one] | +++ (+++ is >60%) | < 1000 | – | – | –
COCCNC1CC2(C1)CC(N1C(=O)c3cccc(c3)S(=O)(=O)Nc3nc(cc(-c4c(C)cccc4C)n3)OC[C@H]1CC(C)C)C2 (stereo in doubt) [Compound 288] | +++ (+++ is >60%) | < 1000 | – | – | –
Cc1cccc(C)c1-c1cc2nc(n1)NS(=O)(=O)c1cccc(c1)C(=O)N(C1CC(NC(=O)OC(C)C)C1)[C@H](CC(C)(C)C)CO2 (stereo in doubt) [Compound 451] | +++ (+++ is >60%) | < 1000 | – | – | –
[H][C@]1(N2C(=O)c3cccc(c3)S(=O)(=O)Nc3nc(cc(-c4c(C)cccc4C)n3)OC[C@H]2CC2(C(F)(F)F)CC2)C[C@@]2(C[C@H](N(C)C)C2)C1 (some centres unmarked) [Compound 297] | – | – | – | – | Ent. B Max Activity (%): +++ (+++ is >60%); EC50 (read-out: Ent. B EC50): < 1000 nM
Cc1cccc(C)c1-c1cc2nc(n1)NS(=O)(=O)c1cccc(c1)C(=O)N(C1CC3(CCN(C(=O)N(C)C)CC3)C1)[C@H](CC(C)C)CO2 [Compound 26, 2-[(11R)-6-(2,6-Dimethylphenyl)-11-isobutyl-2,2,13-trioxo-9-oxa-2λ^6-thia-3,5,12,19-tetrazatricyclo[12.3.1.14,8]nonadeca-1(18),4(19),5,7,14,16-hexaen-12-yl]-N,N-dimethyl-7-azaspiro[3.5]nonane-7-carboxamide] | +++ (+++ is >60%) | < 1000 | – | – | –
Cc1cccc(C)c1-c1cc2nc(n1)NS(=O)(=O)c1cccc(c1)C(=O)N([C@H]1C[C@@H](CC(C)(C)O)C1)[C@H](CC(C)(C)C)CO2 (single isomer, unassigned) [Compound 153] | – | – | +++ (+++ is >60%) | < 1000 | –
CC(=O)NC1CC(N2C(=O)c3cccc(c3)S(=O)(=O)Nc3nc(cc(-c4c(C)cccc4C)n3)OC[C@H]2CC(C)(C)C)C1 (stereo in doubt) [Compound 449] | +++ (+++ is >60%) | < 1000 | – | – | –
CC(C)C[C@@H]1COc2cc(-c3c(F)cccc3C(F)(F)F)nc(n2)NS(=O)(=O)c2cccc(c2)C(=O)N1C1CC2(CC2)C1 [Compound 202] | – | – | ++ (++ is 30-60%) | < 1000 | –
COCCN1CC(N2C(=O)c3cccc(c3)S(=O)(=O)Nc3nc(cc(-c4c(C)cccc4C)n3)OC[C@H]2CC(C)C)CC1(C)C (stereo in doubt) [Compound 277] | +++ (+++ is >60%) | 1000 to 3000 | – | – | –

The next lines start with results.

Ent. B Max Activity (%) (Table 9) | EC50 (Table 9, read-out: Ent. B EC50) [nM] | Ent. B Max Activity (%) (Table 10) | EC50 [1] [nM] | Compound | also measured
– | – | +++ (+++ is >60%) | < 1000 | CC(=O)NCC[C@H]1C[C@@H](N2C(=O)c3cccc(c3)S(=O)(=O)Nc3nc(cc(-c4c(C)cccc4C)n3)OC[C@H]2CC(C)(C)C)C1 (single isomer, unassigned) [Compound 155] | –
+++ (+++ is >60%) | < 1000 | – | – | Cc1cccc(C)c1-c1cc2cc(n1)NS(=O)(=O)c1cccc(n1)C(=O)N(C1CC3(CC3)C1)[C@H](CC1(C(F)(F)F)CC1)CO2 [Compound 425] | –
– | – | ++ (++ is 30-60%) | < 1000 | Cc1cccc(C)c1-c1cc2nc(n1)NS(=O)(=O)c1cccc(c1)C(=O)N([C@H]1C[C@@H](N3CCOC3=O)C1)[C@H](CC(C)(C)C)CO2 (single isomer, unassigned) [Compound 167] | –
– | – | +++ (+++ is >60%) | < 1000 | CCC(=O)N[C@H]1C[C@]2(C1)C[C@H](N1C(=O)c3cccc(c3)S(=O)(=O)Nc3nc(cc(-c4c(C)cccc4C)n3)OC[C@H]1CC1(C(F)(F)F)CC1)C2 (some centres unmarked) [Compound 249] | –
+++ (+++ is >60%) | < 1000 | – | – | Cc1cccc(C)c1-c1cc2nc(n1)NS(=O)(=O)c1cccc(c1)C(=O)N(C1CC3(CCN(C(=O)[C@H](C)O)CC3)C1)[C@H](CC(C)C)CO2 [Compound 456] | –
– | – | + (+ is <300%) | < 1000 | Cc1cccc(C)c1-c1cc2nc(n1)NS(=O)(=O)c1cccc(c1)C(=O)N([C@H]1C[C@@H](N(CCO)CCO)C1)[C@H](CC(C)(C)C)CO2 (stereo in doubt) [Compound 252] | –
– | – | ++ (++ is 30-60%) | < 1000 | CCC(=O)N(C)C1CC(N2C(=O)c3cccc(c3)S(=O)(=O)Nc3nc(cc(-c4c(C)cccc4C)n3)OC[C@H]2CC(C)(C)C)C1 (stereo in doubt) [Compound 239] | –
– | – | +++ (+++ is >60%) | < 1000 | CC(=O)N1CCC12CC(N1C(=O)c3cccc(c3)S(=O)(=O)Nc3nc(cc(-c4c(C)cccc4C)n3)OC[C@H]1CC(C)(C)C)C2 (some centres unmarked) [Compound 207] | –
– | – | +++ (+++ is >60%) | < 1000 | Cc1cccc(C)c1-c1cc2nc(n1)NS(=O)(=O)c1cccc(n1)C(=O)N([C@H]1C[C@@H](C(C)(C)O)C1)[C@H](CC(C)(C)C)CO2 (stereo in doubt) [Compound 411] | –
++ (++ is 30-60%) | < 1000 | – | – | CC(C)C[C@@H]1COc2cc(-c3c(C(F)(F)F)cccc3C(F)(F)F)nc(n2)NS(=O)(=O)c2cccc(c2)C(=O)N1C1CC2(CC2)C1 [Compound 186, (11R)-6-[2,6-Bis(trifluoromethyl)phenyl]-11-isobutyl-2,2-dioxo-12-spiro[2.3]hexan-5-yl-9-oxa-2λ^6-thia-3,5,12,19-tetrazatricyclo[12.3.1.14,8]nonadeca-1(18),4,6,8(19),14,16-hexaen-13-one] | –
– | – | ++ (++ is 30-60%) | < 1000 | Cc1cccc(C)c1-c1cc2nc(n1)NS(=O)(=O)c1cccc(c1)C(=O)N(C1CC3(CC3)C1)[C@H](CCC(C)(C)O)CO2 [Compound 52, (11R)-6-(2,6-Dimethylphenyl)-11-(3-hydroxy-3-methyl-butyl)-2,2-dioxo-12-spiro[2.3]hexan-5-yl-9-oxa-2λ^6-thia-3,5,12,19-tetrazatricyclo[12.3.1.14,8]nonadeca-1(18),4(19),5,7,14,16-hexaen-13-one] | –
+++ (+++ is >60%) | < 1000 | – | – | Cc1cccc(C)c1-c1cc2nc(n1)NS(=O)(=O)c1cccc(c1)C(=O)N(C1CC3(CCN(C(=O)CO)CC3)C1)[C@H](CC(C)C)CO2 [Compound 25, (11R)-6-(2,6-Dimethylphenyl)-12-[7-(2-hydroxyacetyl)-7-azaspiro[3.5]nonan-2-yl]-11-isobutyl-2,2-dioxo-9-oxa-2λ^6-thia-3,5,12,19-tetrazatricyclo[12.3.1.14,8]nonadeca-1(18),4(19),5,7,14,16-hexaen-13-one] | –
– | – | ++ (++ is 30-60%) | < 1000 | Cc1cccc(C)c1-c1cc2nc(n1)NS(=O)(=O)c1cccc(c1)C(=O)N(C1CC3(COC(=O)N3)C1)[C@H](CC(C)C)CO2 (some centres unmarked) [Compound 256] | –
+++ (+++ is >60%) | < 1000 | – | – | CN[C@H]1CC2(C1)C[C@H](N1C(=O)c3cccc(c3)S(=O)(=O)Nc3nc(cc(-c4c(C)cccc4C)n3)OC[C@H]1CC(C)C)C2 (some centres unmarked) [Compound 281] | –
– | – | ++ (++ is 30-60%) | < 1000 | Cc1cccc(C)c1-c1cc2nc(n1)NS(=O)(=O)c1cccc(c1)C(=O)N(C1CC(N(C)C)C1)[C@H](CC(C)(C)C)CO2 (some centres unmarked) [Compound 253] | –
– | – | +++ (+++ is >60%) | < 1000 | Cc1cccc(C)c1-c1cc2nc(n1)NS(=O)(=O)c1cccc(c1)C(=O)N(C1CC3(CC(C(N)=O)C3)C1)[C@H](CC(C)(C)C)CO2 (some centres unmarked) [Compound 233] | –
